How the values were obtained:
Assay type in all cases: cell-based
[1] = target: T1, human SPPL2a (Homo sapiens, UniProt Q8TCT8); test: Sppl2a TL (translocation) imaging assay in U-2 OS cells; set-up: expressed in transfected cells; conditions: U-2 OS cells expressing human SPPL2a and EGFP-TNFα(aa1-76) NTF substrate; 24 h
T1 sequence (Q8TCT8 26-520): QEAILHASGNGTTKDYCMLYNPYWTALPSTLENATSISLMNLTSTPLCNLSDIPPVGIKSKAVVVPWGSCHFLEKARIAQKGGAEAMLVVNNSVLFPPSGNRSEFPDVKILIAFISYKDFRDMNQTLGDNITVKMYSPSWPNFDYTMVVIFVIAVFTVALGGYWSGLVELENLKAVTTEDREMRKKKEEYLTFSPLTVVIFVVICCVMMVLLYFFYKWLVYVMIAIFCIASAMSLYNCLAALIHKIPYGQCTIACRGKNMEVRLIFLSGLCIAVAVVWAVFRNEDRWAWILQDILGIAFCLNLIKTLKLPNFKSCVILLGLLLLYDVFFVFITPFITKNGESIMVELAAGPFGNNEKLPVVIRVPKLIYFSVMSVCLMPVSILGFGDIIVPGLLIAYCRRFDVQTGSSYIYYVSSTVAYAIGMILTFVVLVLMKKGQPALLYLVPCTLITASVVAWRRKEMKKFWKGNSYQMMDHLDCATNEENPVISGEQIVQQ
Summary of the method: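 U-2 OS cells stably expressing human SPPL2a plus doxycycline-induced EGFP-TNFα(aa1-76) NTF, treated 24 h at 37 °C with inhibitor (100 μM–1 nM, 11 points, 0.9% DMSO, 5 μg/mL doxycycline). Imaging of nuclear-minus-cytoplasmic EGFP intensity; % inhibition versus 0.5 μM LY-411,575 and DMSO, IC50 by nonlinear regression; CC50 from cell count.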

[2] = target: T2, Sppl2a CD74 (Mus musculus, UniProt Q9JJF9); test: CD74/p8 mouse whole blood assay, flow cytometry format; conditions: Balb/c mouse whole blood, 5 h, CD74 signal on gated live B cells
T2 construct: Mouse whole blood Balb/c mice (sodium citrate) was ordered by Bioreclamation LLC; tissue Bioreclamation LLC
T2 sequence (Q9JJF9 26-523): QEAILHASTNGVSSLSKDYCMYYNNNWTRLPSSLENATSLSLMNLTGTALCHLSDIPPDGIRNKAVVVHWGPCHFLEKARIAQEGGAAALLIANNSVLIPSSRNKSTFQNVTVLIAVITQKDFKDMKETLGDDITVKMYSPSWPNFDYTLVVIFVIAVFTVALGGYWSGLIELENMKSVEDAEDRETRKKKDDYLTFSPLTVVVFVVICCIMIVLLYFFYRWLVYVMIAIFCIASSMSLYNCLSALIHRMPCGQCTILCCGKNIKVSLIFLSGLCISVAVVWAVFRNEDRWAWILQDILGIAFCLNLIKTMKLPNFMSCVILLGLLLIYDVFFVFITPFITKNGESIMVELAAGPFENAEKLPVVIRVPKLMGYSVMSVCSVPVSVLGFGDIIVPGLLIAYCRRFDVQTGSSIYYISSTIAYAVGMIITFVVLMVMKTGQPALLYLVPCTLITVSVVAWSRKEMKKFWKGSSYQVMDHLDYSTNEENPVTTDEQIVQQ
Protocol: CD74/p8 Mouse Whole Blood Assay: Flow Cytometry Format
Mouse whole blood Balb/c mice (sodium citrate) was ordered by Bioreclamation LLC; USA. The blood was used the next day upon receipt (stored at 4° C.). 100 μL blood were transferred in 96 well format plate, where compounds, an 11 point dilutions down from 30 μM, to be tested were previously deposited. The plate was incubated for 5 h in the incubator at 37° C., 5% CO2 under continuous motion. After the incubation the blood was diluted with RBC Lysis Buffer (Amined; Cat. Nr 3-13F00-H or BD; Cat. Nr 555899). The solution was mixed by pipetting and incubated 10 min in the 37° C. incubator. The white blood cells were sedimented for 3 min at 2000 rpm. After removing the supernatant the cell pellet was resuspended and washed twice in RCB Buffer and kept≈ 5 min at room temperature, followed by a centrifugation for 2 min at 2000 rpm. The cell pellet was then resuspend in D-PBS and centrifuged twice. Finally, the cells were taken up in of D-PBS/0.5% inactivated fetal bovine serum/2 mM EDTA. The cell suspension was treated with Live/Dead fixable stain (Life Technologies, >470 nm version), B cells were identified by surface staining with an anti-B220 antibody coupled to APC fluorofor. After staining, the cells were extensively washed with PBS. The cells were permeabilized and fixed in FACS lysing buffer; (BD; #349202, dil 1:10 in water) and labelled with an anti CD74, FITC labelled antibody, washed once more with diluted FACS lysing buffer and spin down. The cell pellet was washed with D-PBS/0.5% inactivated fetal bovine serum/2 mM EDTA and PBS prior to the analysis in a flow cytometer. The compound concentrations were plotted against the intensity (medium fluorescence intensity) of the CD74 signal on the gated life B cell and IC50 were determined by fitting data for a 11 concentrations dose response.

[3] = target: T1, human SPPL2a; test: Sppl2a RGA (reporter gene assay) in HEK293 cells; set-up: expressed in transfected cells; host or cells: HEK293 (transient); conditions: NT-TNF-VP16-Gal4 substrate, Gal4-luciferase reporter, 24 h
Summary of the method: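 HEK293 cells transiently co-transfected with human SPPL2a, NT-TNF-VP16-Gal4 substrate and Gal4-luciferase reporter, compound added within 5 h. After 24 h at 37 °C, luciferase luminescence measured; IC50 from concentration versus normalized luminescence.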

Compound | IC50 [1] [nM] | IC50 [2] [nM] | IC50 [3] [nM]
Cc1nc(C(=O)NCC(F)F)sc1C(=O)NC[C@@H](C)C(=O)N[C@@H]1C(=O)N2CCCN2Cc2ccccc21 [Example 21, N^2-(2,2-Difluoroethyl)-4-methyl-N^5-((R)-2-methyl-3-oxo-3-(((S)-11-oxo-2,3,10,11-tetrahydro-1H,5H-benzo[d]pyrazolo [1,2-a][1,2]diazepin-10-yl)amino)propyl) thiazole-2,5-dicarboxamide] | 13 | 5940 | 7
CC(C)NC(=O)c1nc(Cl)c(C(=O)NC[C@@H](C)C(=O)N[C@@H]2C(=O)N3CCCN3Cc3ccccc32)s1 [Example 22, 4-Chloro-N^2-isopropyl-N^5-((R)-2-methyl-3-oxo-3-(((S)-11-oxo-2,3,10,11-tetrahydro-1H,5H-benzo[d]pyrazolo [1,2-a][1,2]diazepin-10-yl)amino)propyl) thiazole-2,5-dicarboxamide] | 14 | 3000 | 12
Cc1cc(-c2nc(C)c(C(=O)NC[C@@H](C)C(=O)N[C@@H]3C(=O)N4CCCN4Cc4ccccc43)s2)on1 [Example 23, 4-Methyl-N-((R)-2-methyl-3-oxo-3-(((S)-11-oxo-2,3,10,11-tetrahydro-1H,5H-benzo[d]pyrazolo [1,2-a][1,2]diazepin-10-yl)amino)propyl)-2-(3-methylisoxazol-5-yl)thiazole-5-carboxamide] | 16 | 992 | 21
Cc1nc(C(=O)NC(C)C)sc1C(=O)NC[C@@H](C)C(=O)N[C@@H]1C(=O)N2CCCN2Cc2ccccc21 [Example 24, N^2-Isopropyl-4-methyl-N^5-((R)-2-methyl-3-oxo-3-(((S)-11-oxo-2,3,10,11-tetrahydro-1H,5H-benzo[d]pyrazolo [1,2-a][1,2]diazepin-10-yl)amino)propyl) thiazole-2,5-dicarboxamide] | 21 | 1660 | 33
CC[C@H](CNC(=O)c1onc(C)c1C)C(=O)N[C@@H]1C(=O)N2CCCN2Cc2ccccc21 [Example 25, 3,4-Dimethyl-N-((R)-2-(((S)-11-oxo-2,3,10,11-tetrahydro-1H,5H-benzo[d]pyrazolo [1,2-a][1,2]diazepin-10-yl)carbamoyl)butyl) isoxazole-5-carboxamide] | 24 | 420 | 9

Stronger by IC50 [1], values ahead:

IC50 [1] [nM] | IC50 [2] [nM] | IC50 [3] [nM] | Compound
7 | 269 | 3 | Cc1nc(C(=O)NC(C)C)sc1C(=O)NC[C@H](C(=O)N[C@@H]1C(=O)N2CCCN2Cc2ccccc21)C(F)(F)F [Example 14, N^2-Isopropyl-4-methyl-N^5-((R)-3,3,3-trifluoro-2-(((S)-11-oxo-2,3,10,11-tetrahydro-1H,5H-benzo[d]pyrazolo [1,2-a][1,2]diazepin-10-yl)carbamoyl)pro-pyl)thiazole-2,5-dicarboxamide]
11 | 659 | 8 | CCNC(=O)c1nc(C)c(C(=O)NC[C@@H](C)C(=O)N[C@@H]2C(=O)N3CCCN3Cc3ccccc32)s1 [Example 16, N^2-Ethyl-4-methyl-N^5-((R)-2-methyl-3-oxo-3-(((S)-11-oxo-2,3,10,11-tetrahydro-1H,5H-benzo[d]pyrazolo [1,2-a][1,2]diazepin-10-yl)amino)propyl) thiazole-2,5-dicarboxamide]
11 | 2350 | 5 | CC[C@H](CNC(=O)c1c(C)noc1C(F)(F)F)C(=O)N[C@@H]1C(=O)N2CCCN2Cc2ccccc21 [Example 17, 3-Methyl-N-((R)-2-(((5)-11-oxo-2,3,10,11-tetrahydro-1H,5H-benzo[d]pyrazolo [1,2-a][1,2]diazepin-10-yl)carbamoyl)butyl)-5-(trifluoromethyl) isoxazole-4-carboxamide]
12 | 819 | 6 | CC[C@H](CNC(=O)c1sc(C(=O)NC(C)C)nc1C)C(=O)N[C@@H]1C(=O)N2CCCN2Cc2ccccc21 [Example 19, N^2-Isopropyl-4-methyl-N^5-((R)-2-(((S)-11-oxo-2,3,10,11-tetrahydro-1H,5H-benzo[d]pyrazolo [1,2-a][1,2]diazepin-10-yl)carbamoyl)butyl) thiazole-2,5-dicarboxamide]

Reference: patent US20230365571A1, “COMPOUNDS AND COMPOSITIONS AS Sppl2a INHIBITORS” (Novartis AG, priority 2020, published 2023)
